Legend:
[1] = tested on: NDM-1 Escherichia coli (BAA2469); assay: chequerboard analysis, log phase culture, 24 hours incubation, FICI calculated; assay type: cell-based; parameters: key: FICI; ≤0.5 synergy, 0.5–4.0 no interaction, ≥4.0 antagonism
Description: (§1) Log phase bacterial culture was incubated with HT0160010 and CMS in combination using the chequerboard method known in the art. The overnight culture was diluted with nutrient broth (Oxoid) to 10^7 CFU/ml and 280 μl of the culture was added to each well to make a final concentration of 300 μl. Incubation of the compounds with the bacterial suspension was carried out for 24 hours. The HT0160010 concentration ranged from 128 to 0 μg/ml and the CMS concentration ranged from 16 to 0 μg/ml.
(§2) The effects of the combination were examined by calculating the fractional inhibitory concentration index (FICI) of each combination, as follows: (MIC of drug A, tested in combination)/(MIC of drug A, tested alone)+(MIC of drug B, tested in combination)/(MIC of drug B, tested alone). The interaction of the combination was defined as showing synergy if the FICI was ≤0.5, no interaction if the FICI was ≥0.5 but ≤4.0 and antagonism if the FICI was ≥4.0.
• Bacterial strain used: BAA2469 strain of NDM-1 E. coli from ATCC®. • Growth of bacteria: Log phase growth of the bacteria was carried out according to methods known in the art.
Compounds and preparation were the same as Example 1. The effects of the combination were also examined by calculating the FICI in the same manner as Example 1.
as §1, with “with HT0160009” for “with HT0160010”, “from 256” for “from 128”
Compounds and preparation were the same as Example 3. The effects of the combination were also examined by calculating the FICI in the same manner as Example 3.

[2] = tested on: NDM-1 Klebsiella pneumoniae subsp. pneumoniae (BAA2472); assay: as above; assay type: cell-based
Description: • Bacterial strain used: BAA2472 strain of NDM-1 Klebsiella pneumoniae subsp. pneumoniae from ATCC®. • Growth of bacteria: Log phase growth of the bacteria was carried out according to methods known in the art. • Compounds and preparation: • (i) HT0160010 was obtained from a commercial source and dissolved in DMSO to make a stock concentration of 10 mg/ml. • (ii) Colistimethate sodium (CMS) was obtained from a commercial source (e.g. Sigma Aldrich) at a concentration of 10 mg/ml.
as §1, §2
• Bacterial strain used: BAA2472 strain of NDM-1 Klebsiella pneumoniae subsp. pneumoniae from ATCC®. • Growth of bacteria: Log phase growth of the bacteria was carried out according to methods known in the art.
• (i) HT0160009 was obtained from a commercial source and dissolved in DMSO to make a stock concentration of 10 mg/ml. • (ii) Colistimethate sodium (CMS) was obtained from a commercial source (e.g. Sigma Aldrich) at a concentration of 10 mg/ml.
as §1, with “with HT0160009” for “with HT0160010”, “from 256” for “from 128”
The effects of the combination were examined by calculating the FICI in the same manner as Example 1.

[3] = CMS 0.015625 μg/ml, HT0160010 0

Q: What does the source list for Colistimethate sodium [CMS]?
A: chequerboard results [1, 3]: 0.59; chequerboard results ([1]; CMS 0.016 μg/ml, HT0160009 0): 0.62; chequerboard results ([1]; CMS 0.031 μg/ml, HT0160009 0): 0.64; chequerboard results ([1]; CMS 0.03125 μg/ml, HT0160010 0): 0.68; chequerboard results ([1]; CMS 0.0625 μg/ml, HT0160010 0): 0.61; chequerboard results ([1]; CMS 0.063 μg/ml, HT0160009 0): 0.66; chequerboard results ([1]; CMS 0.125 μg/ml, HT0160009 0): 0.63; chequerboard results ([1]; CMS 0.125 μg/ml, HT0160010 0): 0.59; chequerboard results ([1]; CMS 0.25 μg/ml, HT0160009 0): 0.62; chequerboard results ([1]; CMS 0.25 μg/ml, HT0160010 0): 0.61; chequerboard results ([1]; CMS 0.5 μg/ml, HT0160009 0): 0.62; chequerboard results ([1]; CMS 0.5 μg/ml, HT0160010 0): 0.59; chequerboard results ([1]; CMS 1 μg/ml, HT0160009 0): 0.56; chequerboard results ([1]; CMS 1 μg/ml, HT0160010 0): 0.55; chequerboard results ([1]; CMS 2 μg/ml, HT0160009 0): 0.55; chequerboard results ([1]; CMS 2 μg/ml, HT0160010 0): 0.54; chequerboard results ([1]; CMS 4 μg/ml, HT0160009 0): 0.05; chequerboard results ([1]; CMS 4 μg/ml, HT0160010 0): 0.18; chequerboard results ([1]; CMS 8 μg/ml, HT0160009 0): 0.05; chequerboard results ([1]; CMS 8 μg/ml, HT0160010 0): 0.05; chequerboard results ([1]; CMS 16 μg/ml, HT0160009 0): 0.05; chequerboard results ([1]; CMS 16 μg/ml, HT0160010 0): 0.05; chequerboard results [2, 3]: 0.54; chequerboard results ([2]; CMS 0.016 μg/ml, HT0160009 0): 0.52; chequerboard results ([2]; CMS 0.031 μg/ml, HT0160009 0): 0.52; chequerboard results ([2]; CMS 0.03125 μg/ml, HT0160010 0): 0.53; chequerboard results ([2]; CMS 0.0625 μg/ml, HT0160010 0): 0.54; chequerboard results ([2]; CMS 0.063 μg/ml, HT0160009 0): 0.53; chequerboard results ([2]; CMS 0.125 μg/ml, HT0160009 0): 0.53; chequerboard results ([2]; CMS 0.125 μg/ml, HT0160010 0): 0.52; chequerboard results ([2]; CMS 0.25 μg/ml, HT0160009 0): 0.53; chequerboard results ([2]; CMS 0.25 μg/ml, HT0160010 0): 0.51; chequerboard results ([2]; CMS 0.5 μg/ml, HT0160009 0): 0.53; chequerboard results ([2]; CMS 0.5 μg/ml, HT0160010 0): 0.52; chequerboard results ([2]; CMS 1 μg/ml, HT0160009 0): 0.50; chequerboard results ([2]; CMS 1 μg/ml, HT0160010 0): 0.41; chequerboard results ([2]; CMS 2 μg/ml, HT0160009 0): 0.04; chequerboard results ([2]; CMS 2 μg/ml, HT0160010 0): 0.05; chequerboard results ([2]; CMS 4 μg/ml, HT0160009 0): 0.04; chequerboard results ([2]; CMS 4 μg/ml, HT0160010 0): 0.04; chequerboard results ([2]; CMS 8 μg/ml, HT0160009 0): 0.04; chequerboard results ([2]; CMS 8 μg/ml, HT0160010 0): 0.05; chequerboard results ([2]; CMS 16 μg/ml, HT0160009 0): 0.04; chequerboard results ([2]; CMS 16 μg/ml, HT0160010 0): 0.05

Q: `OC(c1ccccn1)c1cc(C(F)(F)F)nc2c(C(F)(F)F)cccc12` (stereo not shown) [HT0160010, (2,8-bis-trifluoromethyl-quinolin-4-yl)-pyridin-2-yl-methanol] was tested. Which chequerboard results ([1]; HT0160010 4 μg/ml, CMS 0) did it give?
A: Its chequerboard results is 0.62.

Q: What about the chequerboard results ([1]; HT0160010 8 μg/ml, CMS 0) of the same compound?
A: Its chequerboard results is 0.58.

Q: What about the chequerboard results ([1]; HT0160010 16 μg/ml, CMS 0) of the same compound?
A: Its chequerboard results is 0.61.

Q: What about the chequerboard results ([1]; HT0160010 32 μg/ml, CMS 0) of the same compound?
A: The chequerboard results was 0.62.

Q: What about the chequerboard results ([1]; HT0160010 64 μg/ml, CMS 0) of the same compound?
A: The chequerboard results was 0.64.

Q: And the chequerboard results ([1]; HT0160010 128 μg/ml, CMS 0)?
A: Its chequerboard results is 0.61.

Q: And the chequerboard results ([2]; HT0160010 4 μg/ml, CMS 0)?
A: The chequerboard results was 0.54.

Q: What about the chequerboard results ([2]; HT0160010 8 μg/ml, CMS 0) of the same compound?
A: The chequerboard results was 0.57.

Q: What about the chequerboard results ([2]; HT0160010 16 μg/ml, CMS 0) of the same compound?
A: Its chequerboard results is 0.56.

Q: And the chequerboard results ([2]; HT0160010 32 μg/ml, CMS 0)?
A: The chequerboard results was 0.56.

Q: What about the chequerboard results ([2]; HT0160010 64 μg/ml, CMS 0) of the same compound?
A: Its chequerboard results is 0.56.

Q: And the chequerboard results ([2]; HT0160010 128 μg/ml, CMS 0)?
A: Its chequerboard results is 0.57.

Q: Which results are given for `O=C(c1cc(C(F)(F)F)nc2c(C(F)(F)F)cccc12)C1CCCCN1` (stereo not shown) [HT0160009]?
A: chequerboard results ([1]; HT0160009 4 μg/ml, CMS 0): 0.61; chequerboard results ([1]; HT0160009 8 μg/ml, CMS 0): 0.54; chequerboard results ([1]; HT0160009 16 μg/ml, CMS 0): 0.58; chequerboard results ([1]; HT0160009 32 μg/ml, CMS 0): 0.32; chequerboard results ([1]; HT0160009 64 μg/ml, CMS 0): 0.22; chequerboard results ([1]; HT0160009 128 μg/ml, CMS 0): 0.21; chequerboard results ([1]; HT0160009 256 μg/ml, CMS 0): 0.05; chequerboard results ([2]; HT0160009 4 μg/ml, CMS 0): 0.50; chequerboard results ([2]; HT0160009 8 μg/ml, CMS 0): 0.50; chequerboard results ([2]; HT0160009 16 μg/ml, CMS 0): 0.49; chequerboard results ([2]; HT0160009 32 μg/ml, CMS 0): 0.25; chequerboard results ([2]; HT0160009 64 μg/ml, CMS 0): 0.17; chequerboard results ([2]; HT0160009 128 μg/ml, CMS 0): 0.14; chequerboard results ([2]; HT0160009 256 μg/ml, CMS 0): 0.05
